We go through eleven molecules from PubChem BioAssay (NCI).

Some test systems named below: ACHN renal; SNB-75 CNS; NCI-H23 lung; T-47D breast; PC-3 prostate; UACC-257 melanoma; NCI/ADR-RES ovarian; HL-60(TB) leukemia.
Experiment in all cases: growth of human tumour cells (NCI), 48 h

Each structure is given as a SMILES string.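 In this assay, cells in 96-well plates receive the compound at five concentrations for 48 hours. Endpoints are linearly interpolated between the surrounding concentrations. Here, GI50 denotes the concentration required for 50% inhibition of growth. TGI denotes the concentration required for complete inhibition of growth.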 A value given as a limit tells only on which side of the number the result lay.

Consider `CCOC(=O)C(=O)C(/C(=N/N(C)C)C(=O)Nc1ccc(C)cc1C)c1nc2ccccc2[nH]c1=O` (stereo unspecified), for which the TGI in the experiment on ACHN renal, in the experiment with SNB-75 CNS, in the experiment on NCI-H23 lung, in the experiment with T-47D breast, in the experiment with PC-3 prostate and in the experiment with UACC-257 melanoma was > 100 µM throughout. In addition, the TGI with NCI/ADR-RES ovarian and in the experiment on HL-60(TB) leukemia was > 100 µM in each case.
For the molecule `O=C(Nc1ccc(-n2ccc3c(NC(=O)c4ccccc4)nccc32)cc1)c1ccc(N2CCOCC2)c(C(F)(F)F)c1`, the GI50 in the experiment with ACHN renal was 0.106 µM; in the experiment with SNB-75 CNS it was 0.518 µM; in the experiment on NCI-H23 lung, 1.39 µM; in the experiment on T-47D breast it was 2.65 µM; with PC-3 prostate, 1.02 µM; in the experiment on UACC-257 melanoma, 3.61 µM. Also, the GI50 in the experiment on NCI/ADR-RES ovarian was 0.198 µM; with HL-60(TB) leukemia it was 1.01 µM. Also, the TGI in the experiment on ACHN renal was 22.8 µM; with SNB-75 CNS, 13.9 µM; in the experiment on NCI-H23 lung, > 44.8 µM; with T-47D breast, > 41.1 µM; in the experiment on PC-3 prostate it was 52.5 µM; in the experiment with UACC-257 melanoma, 55.5 µM. Further, the TGI was 29.9 µM in the experiment on NCI/ADR-RES ovarian and > 100 µM in the experiment with HL-60(TB) leukemia.
As to `C[C@@]1(O)CCC[C@H]1n1c(=O)c(C(F)F)cc2cnc(NC3CCN(S(C)(=O)=O)CC3)nc21`, the GI50 in the experiment with ACHN renal was 1.37 µM; in the experiment with SNB-75 CNS it was 0.223 µM; in the experiment with NCI-H23 lung, 1.43 µM; in the experiment on T-47D breast, 1.29 µM; in the experiment with PC-3 prostate, 2.1 µM; in the experiment with UACC-257 melanoma, 2.31 µM. Moreover, the figures for the GI50 in the experiment on NCI/ADR-RES ovarian and in the experiment on HL-60(TB) leukemia were 12.7 µM and 1.14 µM, respectively. In addition, the TGI was > 100 µM in the experiment on ACHN renal; 2.38 µM in the experiment on SNB-75 CNS; 6.69 µM with NCI-H23 lung; > 100 µM in the experiment with T-47D breast; > 100 µM in the experiment with PC-3 prostate; 22.8 µM in the experiment on UACC-257 melanoma. Also, the TGI with NCI/ADR-RES ovarian is > 100 µM; with HL-60(TB) leukemia it was 5.38 µM.
With `O=C(O)CNC(=O)C1NC(C(F)(F)F)(C(F)(F)F)OC1(C(F)(F)F)C(F)(F)F` (stereo unspecified), the TGI in the experiment on ACHN renal, with SNB-75 CNS, in the experiment on NCI-H23 lung, in the experiment with T-47D breast, in the experiment on PC-3 prostate and in the experiment on UACC-257 melanoma was > 100 µM in each case. Further, the TGI with NCI/ADR-RES ovarian and in the experiment with HL-60(TB) leukemia was > 100 µM in each case.
Take `CN[C@H]1CC[C@]23C[C@]24CC[C@]2(C)[C@@H]([C@H](C)N(C)C)CC[C@@]2(C)[C@@H]4CC[C@H]3C1(C)C`: the TGI worked out at 31 µM with ACHN renal; 33.2 µM in the experiment with SNB-75 CNS; 35.6 µM in the experiment with NCI-H23 lung; 35.2 µM in the experiment on T-47D breast; 29 µM in the experiment on PC-3 prostate; 32.8 µM in the experiment on UACC-257 melanoma. Also, the TGI in the experiment with NCI/ADR-RES ovarian is 36.6 µM; with HL-60(TB) leukemia it was 36.3 µM.
Take `COc1ccc(-c2cc(-c3ccc(Cl)cc3)nc(SCCCCCCC(=O)NO)n2)cc1`: the GI50 was 1.11 µM in the experiment with ACHN renal; 1.36 µM in the experiment with SNB-75 CNS; 1.56 µM in the experiment with NCI-H23 lung; 1.42 µM in the experiment with T-47D breast; 1.69 µM in the experiment with PC-3 prostate; 1.88 µM in the experiment with UACC-257 melanoma. The values for the GI50 with NCI/ADR-RES ovarian and with HL-60(TB) leukemia were 0.876 µM and 1.19 µM, respectively. In addition, the TGI with ACHN renal is 2.67 µM; in the experiment on SNB-75 CNS, 23.8 µM; in the experiment with NCI-H23 lung, 7.81 µM; in the experiment with T-47D breast it was > 50 µM; in the experiment on PC-3 prostate it was 12.7 µM; in the experiment with UACC-257 melanoma it was > 50 µM. Moreover, the results for the TGI with NCI/ADR-RES ovarian and in the experiment on HL-60(TB) leukemia were 3.83 µM and 2.8 µM, respectively.
Turning to `NC(N)=NC(N)=Nc1ccc(S(N)(=O)=O)cc1`, the TGI with ACHN renal, in the experiment with SNB-75 CNS, with NCI-H23 lung, in the experiment with T-47D breast, in the experiment on PC-3 prostate and in the experiment with UACC-257 melanoma was > 100 µM each time. For the same molecule, the TGI in the experiment on NCI/ADR-RES ovarian and in the experiment on HL-60(TB) leukemia was > 100 µM throughout.
In the case of `COc1cc2c(cc1OC)-c1ncc3cc(OC)c(OC)cc3c1C2`, the GI50 in the experiment with ACHN renal, in the experiment on SNB-75 CNS, in the experiment with NCI-H23 lung, in the experiment with T-47D breast, in the experiment on PC-3 prostate and with UACC-257 melanoma was > 50 µM throughout. Further, the GI50 with NCI/ADR-RES ovarian was > 50 µM; in the experiment on HL-60(TB) leukemia, 16.2 µM. For the same molecule, the TGI in the experiment with ACHN renal, in the experiment on SNB-75 CNS, in the experiment with NCI-H23 lung, in the experiment with T-47D breast, in the experiment with PC-3 prostate and in the experiment on UACC-257 melanoma was > 50 µM each time. For the same molecule, the TGI in the experiment on NCI/ADR-RES ovarian and with HL-60(TB) leukemia was > 50 µM throughout.
Turning to `S=C1SCN(C2CCCCCCCCCCC2)CN1C1CCCCCCCCCCC1`, the TGI in the experiment with ACHN renal, in the experiment on SNB-75 CNS, with NCI-H23 lung, in the experiment on T-47D breast, in the experiment with PC-3 prostate and in the experiment with UACC-257 melanoma was > 100 µM in each case. Further, the TGI with NCI/ADR-RES ovarian and in the experiment on HL-60(TB) leukemia was > 100 µM in each case.
For the molecule `COC(=O)[C@H](Cc1cn(C)cn1)NC(=O)[C@@H](NC(=O)Nc1cc(C(F)(F)F)cc(C(F)(F)F)c1)C(C)(C)C`, the GI50 in the experiment with ACHN renal, with SNB-75 CNS, with NCI-H23 lung, in the experiment with T-47D breast, in the experiment with PC-3 prostate and in the experiment with UACC-257 melanoma was > 10 µM throughout. For the same molecule, the GI50 in the experiment with NCI/ADR-RES ovarian and in the experiment on HL-60(TB) leukemia was > 10 µM each time. Moreover, the TGI in the experiment with ACHN renal, with SNB-75 CNS, with NCI-H23 lung, in the experiment with T-47D breast, in the experiment on PC-3 prostate and in the experiment with UACC-257 melanoma was > 10 µM throughout. For the same molecule, the TGI with NCI/ADR-RES ovarian and with HL-60(TB) leukemia was > 10 µM in each case.
For the molecule `O=S(=O)(NCCNc1cc(-c2cn(-c3ccccc3)nc2-c2cccc(O)c2)ccn1)c1ccc(Br)cc1`, the GI50 with ACHN renal was 3.33 µM; in the experiment on SNB-75 CNS, 2.03 µM; in the experiment with NCI-H23 lung, 2.7 µM; in the experiment on T-47D breast, 2.22 µM; with PC-3 prostate, 2.07 µM; in the experiment with UACC-257 melanoma, 2.8 µM. Also, the GI50 in the experiment on NCI/ADR-RES ovarian was 3.14 µM; in the experiment with HL-60(TB) leukemia it was 2.19 µM. Besides, the TGI in the experiment on ACHN renal is 15.2 µM; in the experiment on SNB-75 CNS it was 6.94 µM; in the experiment on NCI-H23 lung, 11.4 µM; in the experiment on T-47D breast, 7.71 µM; in the experiment on PC-3 prostate it was 6.41 µM; in the experiment on UACC-257 melanoma it was 7.07 µM. Also, the TGI with NCI/ADR-RES ovarian was 12.5 µM; in the experiment with HL-60(TB) leukemia, 5.76 µM.
